Test results as given in ChEMBL document CHEMBL5465560, “Selectivity Literature for EUbOPEN Chemogenomic Library” (2024).

Assays:
[1] = target: Serine/threonine-protein kinase MRCK beta (Homo sapiens) (UniProt Q9Y5S2); experiment: Selectivity interaction (Kinase panel (Z-LYTE Assay)) EUB0001632a CDC42BPB; conditions: at 10 µM
[2] = target: T1, Phosphatidylinositol 3-kinase catalytic subunit type 3 (Homo sapiens, UniProt Q8NEB9); experiment: Selectivity interaction (Kinase panel (ADP-Glow assay)) EUB0000877a PIK3C3
[3] = target: Potassium voltage-gated channel subfamily A member 5 (Homo sapiens) (UniProt P22460); experiment: Selectivity interaction (Panel of kinases, GPCRs, ion channels and transporters (enzymatic assay)) EUB0000266bCl KCNA5
[4] = target: Tyrosine-protein kinase Fyn (Homo sapiens) (UniProt P06241); experiment: Selectivity interaction (ActivX KiNativ screen (kinase selectivity in THP-1 cell lysates)) EUB0000639a FYN; assay type: subcellular; conditions: lysate, at 1 µM
[5] = target: T1, Phosphatidylinositol 3-kinase catalytic subunit type 3; experiment: Selectivity interaction (ActivX KiNativ screen (kinase selectivity in THP-1 cell lysates)) EUB0000639a PIK3C3; assay type: subcellular; conditions: lysate, at 5 µM
[6] = target: T2, Serine/threonine-protein kinase ICK (Homo sapiens) (UniProt Q9UPZ9); experiment: Selectivity interaction (KinomeScan (DiscoverX)) EUB0000695a ICK; conditions: at 100 nM
T2 sequence (whole entry): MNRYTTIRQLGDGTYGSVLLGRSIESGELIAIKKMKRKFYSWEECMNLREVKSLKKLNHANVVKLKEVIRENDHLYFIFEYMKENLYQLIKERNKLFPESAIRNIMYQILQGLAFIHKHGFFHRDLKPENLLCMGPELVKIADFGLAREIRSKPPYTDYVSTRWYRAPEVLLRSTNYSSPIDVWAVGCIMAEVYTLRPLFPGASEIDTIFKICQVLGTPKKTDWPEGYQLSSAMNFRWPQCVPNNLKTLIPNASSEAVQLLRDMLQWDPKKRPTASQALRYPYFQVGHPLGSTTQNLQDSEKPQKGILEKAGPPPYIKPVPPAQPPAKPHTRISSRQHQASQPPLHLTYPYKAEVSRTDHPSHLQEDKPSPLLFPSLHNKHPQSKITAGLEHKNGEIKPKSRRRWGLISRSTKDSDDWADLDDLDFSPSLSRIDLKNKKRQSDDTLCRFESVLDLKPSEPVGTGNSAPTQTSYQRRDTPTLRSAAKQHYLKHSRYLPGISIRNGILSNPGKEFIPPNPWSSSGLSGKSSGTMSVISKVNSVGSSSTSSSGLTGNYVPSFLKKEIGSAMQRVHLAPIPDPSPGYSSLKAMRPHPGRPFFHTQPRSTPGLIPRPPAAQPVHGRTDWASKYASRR

[7] = target: MAP kinase-interacting serine/threonine-protein kinase 2 (Homo sapiens, UniProt Q9HBH9); experiment: Selectivity interaction (KinomeScan (DiscoverX)) EUB0000695a MKNK2; conditions: at 100 nM
[8] = target: Rho-associated protein kinase 1 (Homo sapiens) (UniProt Q13464); experiment: Selectivity interaction (KinomeScan (DiscoverX)) EUB0000595a ROCK1; conditions: at 10 µM
[9] = target: T3, Serine/threonine-protein kinase NLK (Homo sapiens) (UniProt Q9UBE8); conditions: at 10 µM
T3 sequence (whole entry): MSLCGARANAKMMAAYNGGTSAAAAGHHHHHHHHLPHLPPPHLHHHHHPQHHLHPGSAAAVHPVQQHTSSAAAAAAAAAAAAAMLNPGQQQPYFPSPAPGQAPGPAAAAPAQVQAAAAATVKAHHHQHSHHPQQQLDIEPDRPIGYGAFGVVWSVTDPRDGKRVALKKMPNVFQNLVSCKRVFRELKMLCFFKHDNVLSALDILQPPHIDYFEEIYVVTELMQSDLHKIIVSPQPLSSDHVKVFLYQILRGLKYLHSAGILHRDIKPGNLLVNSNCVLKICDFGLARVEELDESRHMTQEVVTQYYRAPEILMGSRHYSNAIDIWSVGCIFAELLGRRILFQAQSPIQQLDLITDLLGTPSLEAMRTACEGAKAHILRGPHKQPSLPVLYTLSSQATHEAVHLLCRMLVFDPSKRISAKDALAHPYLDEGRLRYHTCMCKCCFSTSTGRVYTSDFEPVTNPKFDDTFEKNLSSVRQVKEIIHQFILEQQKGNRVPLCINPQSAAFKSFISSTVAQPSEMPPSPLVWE

[10] = target: Mitogen-activated protein kinase 6 (Homo sapiens) (UniProt Q16659); experiment: Selectivity interaction (Ambit KINOMEscan and KiNATiv profiling in Jurkat cells) EUB0000090b MAPK6; assay type: cell-based; conditions: at 1 µM
[11] = target: Mitogen-activated protein kinase 14 (Homo sapiens, UniProt Q16539)
[12] = target: Interleukin-1 receptor-associated kinase 1 (Homo sapiens) (UniProt P51617); experiment: Selectivity interaction (KinomeScan (DiscoverX)) EUB0000045b IRAK1
[13] = target: T4, cAMP-dependent protein kinase catalytic subunit PRKX (Homo sapiens) (UniProt P51817); experiment: Selectivity interaction (KinomeScan (DiscoverX)) EUB0000045b PRKX
T4 sequence (whole entry): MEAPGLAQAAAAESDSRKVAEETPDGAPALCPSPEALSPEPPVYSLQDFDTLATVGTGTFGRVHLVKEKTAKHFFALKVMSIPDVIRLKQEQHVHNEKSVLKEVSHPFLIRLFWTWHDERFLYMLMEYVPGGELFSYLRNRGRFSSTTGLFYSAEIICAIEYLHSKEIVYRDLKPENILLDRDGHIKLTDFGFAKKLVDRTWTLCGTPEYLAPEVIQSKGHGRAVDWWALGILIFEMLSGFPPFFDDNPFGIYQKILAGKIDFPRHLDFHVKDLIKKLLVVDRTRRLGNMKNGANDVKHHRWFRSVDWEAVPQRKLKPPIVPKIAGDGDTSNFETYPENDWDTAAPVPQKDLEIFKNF

[14] = target: LIM domain kinase 1 (Homo sapiens) (UniProt P53667); experiment: Selectivity interaction (KinomeScan (DiscoverX)) EUB0001079a LIMK1; conditions: at 1 µM
[15] = target: Myosin-IIIa (Homo sapiens) (UniProt Q8NEV4); experiment: Selectivity interaction (KinomeScan (DiscoverX)) EUB0001079a MYO3A; conditions: at 1 µM
[16] = target: Serine/threonine-protein kinase PAK 3 (Homo sapiens) (UniProt O75914); experiment: Selectivity interaction (KinomeScan (DiscoverX)) EUB0001079a PAK3; conditions: at 1 µM
[17] = target: Cyclin-dependent kinase 3 (Homo sapiens) (UniProt Q00526); experiment: Selectivity interaction (KinomeScan (DiscoverX)) EUB0001079a CDK3; conditions: at 1 µM
[18] = target: Phosphatidylinositol 4-kinase beta (Homo sapiens, UniProt Q9UBF8); experiment: Selectivity interaction (KinomeScan (DiscoverX)) EUB0000092b PI4KB; conditions: at 10 µM
[19] = target: Casein kinase II subunit alpha (Homo sapiens, UniProt P68400); conditions: at 10 µM
[20] = target: Leucine-rich repeat serine/threonine-protein kinase 2 (Homo sapiens, UniProt Q5S007); conditions: PBMC, at 1 µM

Interleukin-1 receptor-associated kinase 1 (Homo sapiens), sequence (P51617 whole entry, looked up): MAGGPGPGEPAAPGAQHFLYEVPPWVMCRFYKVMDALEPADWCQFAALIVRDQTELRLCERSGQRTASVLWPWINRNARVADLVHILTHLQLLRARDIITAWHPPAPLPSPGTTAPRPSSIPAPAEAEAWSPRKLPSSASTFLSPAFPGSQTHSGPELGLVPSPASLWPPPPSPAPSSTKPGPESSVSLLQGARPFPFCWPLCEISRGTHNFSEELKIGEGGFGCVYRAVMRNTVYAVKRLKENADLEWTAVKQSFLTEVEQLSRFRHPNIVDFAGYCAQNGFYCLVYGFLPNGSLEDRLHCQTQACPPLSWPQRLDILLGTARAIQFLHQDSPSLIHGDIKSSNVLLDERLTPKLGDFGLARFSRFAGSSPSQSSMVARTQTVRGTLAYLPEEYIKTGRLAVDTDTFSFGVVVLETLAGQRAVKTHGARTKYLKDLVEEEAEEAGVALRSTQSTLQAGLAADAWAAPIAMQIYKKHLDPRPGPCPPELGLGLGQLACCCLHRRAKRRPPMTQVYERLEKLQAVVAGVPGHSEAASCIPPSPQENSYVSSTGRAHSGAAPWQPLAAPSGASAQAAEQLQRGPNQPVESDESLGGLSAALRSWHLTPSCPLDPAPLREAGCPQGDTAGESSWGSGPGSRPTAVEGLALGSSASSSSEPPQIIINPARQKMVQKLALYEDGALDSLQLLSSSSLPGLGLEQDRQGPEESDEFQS
T1 sequence (Q8NEB9 whole entry): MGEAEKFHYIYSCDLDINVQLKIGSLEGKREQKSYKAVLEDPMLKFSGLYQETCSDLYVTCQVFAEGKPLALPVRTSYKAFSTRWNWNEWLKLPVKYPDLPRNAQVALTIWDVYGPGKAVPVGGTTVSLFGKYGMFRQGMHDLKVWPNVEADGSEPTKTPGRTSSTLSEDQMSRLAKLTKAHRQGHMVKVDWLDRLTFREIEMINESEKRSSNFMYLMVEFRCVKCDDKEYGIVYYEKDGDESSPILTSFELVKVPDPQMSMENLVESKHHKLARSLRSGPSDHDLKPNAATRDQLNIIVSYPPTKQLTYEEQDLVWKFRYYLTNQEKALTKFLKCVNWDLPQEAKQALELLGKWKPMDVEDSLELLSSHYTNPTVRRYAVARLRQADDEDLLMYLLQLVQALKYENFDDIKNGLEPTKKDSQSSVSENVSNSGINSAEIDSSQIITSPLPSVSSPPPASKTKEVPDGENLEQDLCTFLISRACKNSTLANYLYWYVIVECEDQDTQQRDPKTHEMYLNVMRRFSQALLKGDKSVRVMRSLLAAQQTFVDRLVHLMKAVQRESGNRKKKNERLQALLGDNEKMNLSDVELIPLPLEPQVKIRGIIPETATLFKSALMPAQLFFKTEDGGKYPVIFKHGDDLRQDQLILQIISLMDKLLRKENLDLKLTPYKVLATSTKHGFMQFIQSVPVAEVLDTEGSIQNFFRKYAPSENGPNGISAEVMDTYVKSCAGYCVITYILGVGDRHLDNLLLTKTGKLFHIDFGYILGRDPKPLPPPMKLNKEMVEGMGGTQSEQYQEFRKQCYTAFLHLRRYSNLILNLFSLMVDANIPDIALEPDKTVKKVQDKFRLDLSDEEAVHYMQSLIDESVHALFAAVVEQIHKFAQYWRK
Phosphatidylinositol 4-kinase beta, sequence (Q9UBF8 2-816 limits assumed): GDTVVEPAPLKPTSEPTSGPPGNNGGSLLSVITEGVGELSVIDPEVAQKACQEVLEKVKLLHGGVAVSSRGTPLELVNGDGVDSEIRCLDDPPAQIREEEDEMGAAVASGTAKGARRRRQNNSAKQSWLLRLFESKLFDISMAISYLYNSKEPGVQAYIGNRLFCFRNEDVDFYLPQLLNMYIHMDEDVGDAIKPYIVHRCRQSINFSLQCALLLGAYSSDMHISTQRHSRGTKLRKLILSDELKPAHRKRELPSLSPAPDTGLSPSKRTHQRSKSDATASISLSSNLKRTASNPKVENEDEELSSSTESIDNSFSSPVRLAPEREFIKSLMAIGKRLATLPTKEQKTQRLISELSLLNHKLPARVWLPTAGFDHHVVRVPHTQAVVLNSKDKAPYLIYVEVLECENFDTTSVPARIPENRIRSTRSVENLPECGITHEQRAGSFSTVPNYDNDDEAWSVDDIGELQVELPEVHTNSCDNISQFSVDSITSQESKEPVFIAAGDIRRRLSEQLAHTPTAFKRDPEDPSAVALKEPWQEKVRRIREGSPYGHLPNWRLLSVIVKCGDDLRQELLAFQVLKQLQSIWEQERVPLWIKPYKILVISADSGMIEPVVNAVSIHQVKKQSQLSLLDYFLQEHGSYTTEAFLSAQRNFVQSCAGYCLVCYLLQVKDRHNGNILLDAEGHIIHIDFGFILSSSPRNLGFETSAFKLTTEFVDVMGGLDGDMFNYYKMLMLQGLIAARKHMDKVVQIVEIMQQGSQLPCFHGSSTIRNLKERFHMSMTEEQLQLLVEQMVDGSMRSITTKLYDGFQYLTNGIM
Mitogen-activated protein kinase 6 (Homo sapiens), sequence (Q16659 whole entry): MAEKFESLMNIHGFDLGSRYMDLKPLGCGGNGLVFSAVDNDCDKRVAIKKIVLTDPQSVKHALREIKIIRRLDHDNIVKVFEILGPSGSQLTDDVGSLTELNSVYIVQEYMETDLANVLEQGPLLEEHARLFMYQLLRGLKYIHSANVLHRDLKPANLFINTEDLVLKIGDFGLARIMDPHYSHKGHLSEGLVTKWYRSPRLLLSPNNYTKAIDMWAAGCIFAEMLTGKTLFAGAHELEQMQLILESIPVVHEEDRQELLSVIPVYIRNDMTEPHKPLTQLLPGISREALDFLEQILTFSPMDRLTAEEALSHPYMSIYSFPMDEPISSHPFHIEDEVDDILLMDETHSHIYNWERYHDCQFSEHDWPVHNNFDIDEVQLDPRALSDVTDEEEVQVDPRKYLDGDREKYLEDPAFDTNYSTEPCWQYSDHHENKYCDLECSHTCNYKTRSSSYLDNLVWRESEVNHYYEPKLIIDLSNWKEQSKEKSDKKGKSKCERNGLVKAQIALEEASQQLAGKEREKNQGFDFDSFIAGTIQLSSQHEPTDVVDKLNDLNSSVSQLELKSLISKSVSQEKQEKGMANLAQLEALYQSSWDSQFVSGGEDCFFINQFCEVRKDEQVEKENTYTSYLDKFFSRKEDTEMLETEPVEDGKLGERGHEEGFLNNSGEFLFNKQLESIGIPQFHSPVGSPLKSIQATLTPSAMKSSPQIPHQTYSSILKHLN
MAP kinase-interacting serine/threonine-protein kinase 2, sequence (Q9HBH9 whole entry, looked up): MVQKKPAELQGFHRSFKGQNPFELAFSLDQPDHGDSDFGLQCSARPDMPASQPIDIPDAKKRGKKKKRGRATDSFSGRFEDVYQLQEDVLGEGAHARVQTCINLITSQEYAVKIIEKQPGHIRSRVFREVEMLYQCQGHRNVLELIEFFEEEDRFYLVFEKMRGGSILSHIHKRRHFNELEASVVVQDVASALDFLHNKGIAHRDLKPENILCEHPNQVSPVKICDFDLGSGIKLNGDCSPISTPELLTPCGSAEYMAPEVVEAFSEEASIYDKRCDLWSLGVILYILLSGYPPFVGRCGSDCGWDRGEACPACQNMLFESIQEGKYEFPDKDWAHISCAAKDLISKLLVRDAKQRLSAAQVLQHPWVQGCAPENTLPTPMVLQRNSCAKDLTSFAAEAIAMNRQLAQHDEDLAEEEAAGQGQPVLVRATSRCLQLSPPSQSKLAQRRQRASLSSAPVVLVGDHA
Mitogen-activated protein kinase 14, sequence (Q16539 whole entry): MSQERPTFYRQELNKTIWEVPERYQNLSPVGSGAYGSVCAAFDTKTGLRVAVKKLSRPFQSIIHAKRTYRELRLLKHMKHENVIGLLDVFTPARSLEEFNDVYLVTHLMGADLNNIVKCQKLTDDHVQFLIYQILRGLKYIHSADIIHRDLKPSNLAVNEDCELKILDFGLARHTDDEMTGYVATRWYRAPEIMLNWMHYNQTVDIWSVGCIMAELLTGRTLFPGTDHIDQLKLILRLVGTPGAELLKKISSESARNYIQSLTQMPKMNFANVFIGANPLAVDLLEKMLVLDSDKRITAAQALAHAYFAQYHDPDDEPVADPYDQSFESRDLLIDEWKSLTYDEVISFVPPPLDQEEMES
Serine/threonine-protein kinase PAK 3 (Homo sapiens), sequence (O75914 whole entry, looked up): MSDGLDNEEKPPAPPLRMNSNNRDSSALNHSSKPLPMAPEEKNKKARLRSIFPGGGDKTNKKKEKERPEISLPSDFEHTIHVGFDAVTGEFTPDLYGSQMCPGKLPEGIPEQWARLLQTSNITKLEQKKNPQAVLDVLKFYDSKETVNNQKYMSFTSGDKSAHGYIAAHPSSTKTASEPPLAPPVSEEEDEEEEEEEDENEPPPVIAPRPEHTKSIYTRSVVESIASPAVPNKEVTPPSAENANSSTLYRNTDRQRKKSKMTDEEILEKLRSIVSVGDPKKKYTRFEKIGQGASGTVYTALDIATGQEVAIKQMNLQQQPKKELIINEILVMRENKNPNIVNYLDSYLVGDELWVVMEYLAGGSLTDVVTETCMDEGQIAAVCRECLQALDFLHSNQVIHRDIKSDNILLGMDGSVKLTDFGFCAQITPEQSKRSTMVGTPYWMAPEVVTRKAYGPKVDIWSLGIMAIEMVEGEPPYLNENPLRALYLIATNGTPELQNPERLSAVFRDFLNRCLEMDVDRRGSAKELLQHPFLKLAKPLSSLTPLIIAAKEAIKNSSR
Casein kinase II subunit alpha, sequence (P68400 whole entry, looked up): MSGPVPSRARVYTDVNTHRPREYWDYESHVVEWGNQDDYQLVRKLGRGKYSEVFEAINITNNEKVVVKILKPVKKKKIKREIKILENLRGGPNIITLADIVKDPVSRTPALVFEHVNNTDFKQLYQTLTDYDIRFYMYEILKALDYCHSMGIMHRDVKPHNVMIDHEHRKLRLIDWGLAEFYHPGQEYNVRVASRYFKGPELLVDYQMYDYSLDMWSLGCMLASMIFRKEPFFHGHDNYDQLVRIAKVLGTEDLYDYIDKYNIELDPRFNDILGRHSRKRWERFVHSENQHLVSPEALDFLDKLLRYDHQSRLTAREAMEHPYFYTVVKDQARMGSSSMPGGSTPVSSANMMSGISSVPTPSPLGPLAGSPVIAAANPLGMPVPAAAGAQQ

## Cn1cc(-n2cnc3c(NCc4nc5cc(Cl)c(Cl)cc5[nH]4)nc(N4CCOCC4)nc32)cn1
[1]
  % of control: 3.7%

## CCC(=O)N1CC[C@H](Nc2ncnc3c2CN(c2cnc(OC)c(C(F)(F)F)c2)CC3)C1 [LENIOLISIB]
[2]
  IC50: > 9.1 µM

## CCn1c(-c2nc3cc(C(=O)N4CCCC(N)C4)ccc3n2C)cc2ccccc21 (configuration not stated)
[3]
  pXC50: < 4.3 M

## CC[C@@H]1[C@H](F)C(=O)N[C@@H]1COc1nccc2cc(C(N)=O)c(OC)cc12 [ZIMLOVISERTIB]
[4]
  % of inhibition: -11%
[5]
  % of inhibition: 30.7%

## Cc1cc(F)c(C(=O)Nc2cccc(-c3nncn3C(C)C)n2)cc1-n1cnc(C2CC2)c1
[6]
  % of control: 100%
[7]
  % of control: 75%

## COCC(=O)NC/C=C/c1ccc2ncnc(Nc3ccc(Oc4ccc(C)nc4)c(C)c3)c2c1 [CP-724714]
[8]
  % of control: 100%
[9]
  % of control: 100%

## CN(C)C/C=C/C(=O)Nc1ccc(C(=O)N2CCCC(Nc3ncc(Cl)c(-c4c[nH]c5ccccc45)n3)C2)cc1 (configuration not stated)
[10]
  % of control: 40%

## CCc1cccc(CC)c1NC(=O)c1nn(C)c2c1CCc1cnc(Nc3ccc(C(=O)NC4CCN(C)CC4)cc3OC(F)(F)F)nc1-2
[11]
  IC50: > 10 µM

## C=CC(=O)Nc1cc(-n2c(=O)ccc3cnc4ccc(-c5ccc(NS(C)(=O)=O)cc5)cc4c32)ccc1C
[12]; at 1 µM
  % of control: 72%
[12]; at 10 µM
  % of control: 60%
[13]; at 1 µM
  % of control: 77%
[13]; at 10 µM
  % of control: 74%

## Nc1cnc(N2CCc3cc(S(=O)(=O)Nc4c(F)cc(Cl)cc4F)cc(N4CCCC4=O)c32)nc1 [TP-020n]
[14]
  % of control: 100%
[15]
  % of control: 77%
[16]
  % of control: 100%
[17]
  % of control: 100%

## CCC(=O)N1CCN(c2ccc(-n3c(=O)ccc4cnc5ccc(-c6cnc7ccccc7c6)cc5c43)cc2C(F)(F)F)CC1
[18]
  % of control: 96%

## Cc1cc([C@@H](C)Nc2ccccc2C(=O)O)c2nc(N3CCOCC3)cc(=O)n2c1 [AZD-6482]
[19]
  % of control: 100%

## N#Cc1cccc(-c2c[nH]c3ncnc(N4CCOCC4)c23)c1
[20]
  % of inhibition: 94%
